# Experimental data from US5554608A, “Inhibition of hair growth” (priority 1994, dated 1996).
# What was measured:
# flank organ hair growth = experiment: Golden Syrian hamster assay (flank organ hair growth, topical); format: in vivo; conditions: for Hair Mass (mean ± SEM) Treated: treated flank organ; for % Inhibition (of hair growth): vs vehicle-treated side, mean ± SEM
# Source text: Male intact Golden Syrian hamsters are considered acceptable models for human beard hair growth in that they display oval shaped flank organs, one on each side, each about 8 mm. in major diameter, which grow thick black and coarse hair similar to human beard hair. These organs produce hair in response to androgens in the hamster. To evaluate the effectiveness of a particular PKC inhibitor, the flank organs of each of a group of hamsters are depilated by applying a thioglycolate based chemical depilatory (Surgex). To one organ of each animal 10-25 μl. of vehicle alone once a day is applied, while to the other organ of each animal an equal amount of vehicle containing a PKC inhibitor is applied. After thirteen applications (one application per day for five days a week), the flank organs are shaved and the amount of recovered hair (hair mass) from each is weighed. Percent-reduction of hair growth is calculated by subtracting the hair mass (mg) value of the test compound treated side from the hair mass value of the vehicle treated side; the delta value obtained is then divided by the hair mass value of the vehicle treated side, and the resultant number is multiplied by 100.
# The above-described assay will be referred to herein as the "Golden Syrian hamster" assay.
# PKC = PKC activity assay in flank organ hair follicle homogenate (32P phosphorylation of acetylated-myelin basic protein); format: biochemical, Golden Syrian hamster
# Experimental: PKC activity was assayed in hair follicles isolated from flank organs using a commercial assay kit obtained from GIBCO BRL (Gaithersburg, Md.). The assay is based on the phosphorylation (incorporation of ^32 -P into) of acetylated-myelin basic protein. After isolation, the flank organ hair follicles were washed in phosphate-buffered saline and homogenized in a buffer containing 20 mM Tris, pH 7.5, 0.5 mM EDTA, 0.5% Triton X-100, 10 mM β-mercaptoethanol, and 25 μg/each of the protease inhibitors aprotinin and leupeptin. The hair follicle homogenate was added to the PKC reaction mixture at a final concentration of 10-20 μg/assay. The assay also included buffer, H2 O, phospholipid. The assay was performed in the presence or absence of select PKC inhibitors. The reaction mixture volume was 50 μl, the ^32 P-ATP substrate was added in a volume of 10 μl. The reaction proceeded at 32° for 15 minutes, whereupon a 16.3 μL aliquot was removed from the reaction mixture and spotted onto a paper filter. Filters were washed twice in 1% phosphoric acid with gentle shaking for 5 minutes. Filters were then washed twice in H2 O and placed in scintillation vials. ^32 P-Incorporation, a measure of the enzyme activity, was determined using standard liquid scintillation techniques.
# [1] = dose 7.5% in vehicle B, pH 7.5, thirteen applications
# [2] = dose 10% in vehicle C, pH 5.5, thirteen applications
# [3] = dose 10% in vehicle A, thirteen applications, pH differs per compound (4.0-8.5)
Structure (SMILES),Hair Mass (mean ± SEM) Treated (flank organ hair growth; [3]),% Inhibition (of hair growth) (flank organ hair growth; [3]) [%],further results
CC1(C)[C@@H](O)CC[C@]2(C)[C@H]3C(=O)C=C4[C@@H]5C[C@@](C)(C(=O)O)CC[C@]5(C)CC[C@@]4(C)[C@]3(C)CC[C@@H]12 [18β-Glycyrrhetinic acid],,,Hair Mass (mean ± SEM) Treated (flank organ hair growth; [1]): 1.07 ± .10 mg; % Inhibition (of hair growth) (flank organ hair growth; [1]): 44 ± 6%; inhibition of PKC activity (PKC; at 500 μM): 52%
COc1cc(/C=C/C(=O)CC(=O)/C=C/c2ccc(O)c(OC)c2)ccc1O [Curcumin],,,Hair Mass (mean ± SEM) Treated (flank organ hair growth; [2]): 0.55 ± .11 mg; % Inhibition (of hair growth) (flank organ hair growth; [2]): 68 ± 5%
CC1(C)[C@@H](O[C@H]2O[C@H](C(=O)O)[C@@H](O)[C@H](O)[C@H]2O[C@@H]2O[C@H](C(=O)O)[C@@H](O)[C@H](O)[C@H]2O)CC[C@]2(C)[C@H]3C(=O)C=C4[C@@H]5C[C@@](C)(C(=O)O)CC[C@]5(C)CC[C@@]4(C)[C@]3(C)CC[C@@H]12 [Glycyrrhetinic acid glycoside],0.94 ± .17 mg,46 ± 10,inhibition of PKC activity (PKC; at 200 μM): ~100%
"CC1CNCCN1S(=O)(=O)c1cccc2cnccc12 (stereo not drawn) [H-7, 1(5-isoquinolinylsulfonyl)-2-methylpiperazine]",0.81 ± .08 mg,54 ± 3,inhibition of PKC activity (PKC; at 200 μM): 86%
CN(C)CCCN1c2ccccc2CCc2ccccc21 [Imipramine],0.94 ± .18 mg,38 ± 5,
CCCCCCCCCCCCCCCC(=O)OC[C@H](O)[C@H]1OC(=O)C(O)=C1O [L-Ascorbic acid 6-palmitate],1.48 ± .14 mg,46 ± 5,
Cc1ccc(N(CC2=NCCN2)c2cccc(O)c2)cc1 [Phentolamine],1.61 ± .22 mg,19 ± 9,
CSc1ccc2c(c1)N(CCC1CCCCN1C)c1ccccc1S2 (stereo not drawn) [Thioridazine],0.74 ± .07 mg,68 ± 4,
CN1CCN(CCCN2c3ccccc3Sc3ccc(C(F)(F)F)cc32)CC1 [Trifluoperizine],1.03 ± .16 mg,56 ± 6,inhibition of PKC activity (PKC; at 500 μM): 42%
COc1ccc(CCN(C)CCCC(C#N)(c2ccc(OC)c(OC)c2)C(C)C)cc1OC (stereo not drawn) [Verapamil],0.43 ± .05 mg,69 ± 5,
